Converted amounts (≈) assume the structure as drawn. Like-named read-outs stand apart in the source and are kept apart here.
Legend:
[1] = target: T1, full-length beta-Catenin (Uniprot ID P35222) (Homo sapiens, UniProt P35222); assay: Fluorescence polarization IC50 (beta-catenin / 5FAM-TCF4 10-53 competition); format: binding
T1 construct: 10 nM full-length beta-Catenin (Uniprot ID P35222)
T1 sequence (P35222 1-781): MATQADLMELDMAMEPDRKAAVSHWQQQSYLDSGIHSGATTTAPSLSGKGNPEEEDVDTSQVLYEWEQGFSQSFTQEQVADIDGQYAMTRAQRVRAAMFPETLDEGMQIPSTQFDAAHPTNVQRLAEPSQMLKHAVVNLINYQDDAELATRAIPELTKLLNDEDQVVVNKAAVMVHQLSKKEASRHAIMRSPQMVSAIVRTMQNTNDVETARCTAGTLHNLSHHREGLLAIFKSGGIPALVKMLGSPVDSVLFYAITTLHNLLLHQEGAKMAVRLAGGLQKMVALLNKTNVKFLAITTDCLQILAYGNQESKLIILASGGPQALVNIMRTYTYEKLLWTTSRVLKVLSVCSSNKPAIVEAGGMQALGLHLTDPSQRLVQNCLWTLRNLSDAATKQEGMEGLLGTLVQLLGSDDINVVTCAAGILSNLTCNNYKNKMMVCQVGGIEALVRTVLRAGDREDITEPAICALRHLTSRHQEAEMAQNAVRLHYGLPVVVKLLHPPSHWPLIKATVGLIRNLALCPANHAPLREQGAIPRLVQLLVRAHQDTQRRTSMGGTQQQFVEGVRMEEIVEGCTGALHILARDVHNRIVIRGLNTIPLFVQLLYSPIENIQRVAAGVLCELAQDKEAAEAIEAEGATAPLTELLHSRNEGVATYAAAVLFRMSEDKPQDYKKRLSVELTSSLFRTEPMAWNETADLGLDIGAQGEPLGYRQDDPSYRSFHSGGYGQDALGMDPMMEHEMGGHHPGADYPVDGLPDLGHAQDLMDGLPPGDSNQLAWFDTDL

CHI Log D procedure = format: physicochemical
Solubility in PBS = format: physicochemical
Summary of the method: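 HPLC quantitation of peptide remaining in the PBS supernatant after ultracentrifugation, referenced to a 50 μM solution in DMSO.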

[2] = fluorescence polarization, read-out: beta-Catenin FP IC50
[3] = fluorescence polarization, beta-catenin, read-out: FP EC50

Compound | IC50 [1, 2] [nM] | chromatographic logD (CHI Log D procedure; pH 7.4, CHI Log D) | IC50 ([1]; read-out: beta-Catenin FP IC50) [nM] | CHI Log D (CHI Log D procedure; pH 7.4) | Solubility (Solubility in PBS) [µM] | IC50 ([1]; read-out: FP EC50) [nM] | other results
CCCNC(=O)C[C@@H]1NC(=O)C2(CCCC=CCCCCCC[C@@](C)(C(=O)N[C@@H](Cc3ccccc3)C(=O)N[C@@H](Cc3csc4ccccc34)C(=O)N[C@@H](CCC(N)=O)C(N)=O)NC(=O)[C@H](C(C)C)NC(=O)[C@H](Cc3ccccc3)NC(=O)[C@H](C)NC(=O)[C@H](C)NC(=O)[C@H](CC(=O)O)NC1=O)CCCC=CC[C@]1(CCCN1C(C)=O)C(=O)N[C@@H](CC(=O)O)C(=O)N[C@@H](C)C(=O)N2 (stereo partly drawn) [I-537, Ac-PL3-Asp-Ala-B5-[NHnPr]AsnR-Asp-Ala-Ala-Phe-Val-S8-Phe-BztA-Gln-NH2] | 5000 | 2.87 |  |  |  |  | Solubility (Solubility in PBS; Solubility (uM)): 11 µM (≈ 20.2 µg/mL)
CCN(CC(=O)O)C[C@@H]1NC(=O)[C@H](CC(=O)O)NC(=O)C2(CCCC=CCCCOC(=O)N3CC[C@@](C(=O)N[C@@H](Cc4ccsc4)C(=O)N[C@@H](Cc4csc5ccccc45)C(=O)N[C@@H](CCC(N)=O)C(N)=O)(C3)NC(=O)[C@H]([C@@H](C)O)NC(=O)[C@H](Cc3ccccc3)NC(=O)[C@H](C)NC(=O)[C@H](C)NC1=O)CCCC=CC[C@]1(CCCN1C(C)=O)C(=O)N[C@@H](CC(=O)O)C(=O)N[C@@H](CC(C)(C)C)C(=O)N2 (stereo partly drawn) [I-968, Ac-PL3-Asp-Npg-B5-Asp-EtGA-Ala-Ala-Phe-Thr-PyrS2-3Thi-BztA-Gln-NH2] |  |  | 2980 | 1.752 | 30 (≈ 58.9 µg/mL) |  | IC50 [1, 3]: 2980 nM
CC(=O)N1CCC[C@]12CC=CCCCC1(CCCC=CCCCOC(=O)N3CC[C@@](C(=O)N[C@@H](Cc4ccccc4F)C(=O)N[C@@H](Cc4csc5ccccc45)C(=O)N[C@@H](CO)C(N)=O)(C3)NC(=O)[C@H](CO)NC(=O)[C@H](Cc3ccccc3)NC(=O)[C@H](C)NC(=O)[C@H](C)NC(=O)[C@H](CC(=O)O)NC(=O)[C@H](CC(=O)O)NC1=O)NC(=O)[C@H](CC1CCCCC1)NC(=O)[C@H](CC(=O)O)NC2=O (stereo partly drawn) [I-1102, Ac-PL3-Asp-Cha-B5-Asp-Asp-Ala-Ala-Phe-Ser-PyrS2-2FF-BztA-Ser-NH2] |  | 2.39 | 16 |  | 10 (≈ 18.9 µg/mL) |  | 
C[C@@H]1NC(=O)[C@H](C)NC(=O)[C@H](CC(=O)O)NC(=O)[C@H](CC(=O)O)NC(=O)C2(CCCC=CCCCOC(=O)N3CC[C@@](C(=O)N[C@@H](Cc4ccsc4)C(=O)N[C@@H](Cc4csc5ccccc45)C(=O)N[C@@H](C(N)=O)[C@H](C)O)(C3)NC(=O)[C@H](CC(N)=O)NC(=O)[C@H](Cc3ccccc3)NC1=O)CCCC=CC[C@]1(CCCN1C(=O)CN=[N+]=[N-])C(=O)N[C@@H](CC(=O)O)C(=O)N[C@@H](CC(C)(C)C)C(=O)N2 (stereo partly drawn) [I-1058, AzAc-PL3-Asp-Npg-B5-Asp-Asp-Ala-Ala-Phe-Asn-PyrS2-3Thi-BztA-dThr-NH2] |  |  |  |  | 42 (≈ 81.2 µg/mL) |  | IC50 ([1]; FP EC50 (nM), fluorescence polarization, beta-catenin): 14 nM; chromatographic logD (CHI Log D procedure; pH 7.4): 2.25
CC(=O)N1CCC[C@]12CC=CCCCC1(CCCC=CCCCCCC[C@@](C)(C(=O)N[C@@H](Cc3ccccc3)C(=O)N[C@@H](Cc3csc4ccccc34)C(=O)N[C@@H](CCC(N)=O)C(N)=O)NC(=O)[C@H](C(C)C)NC(=O)[C@H](CC3CCCC3)NC(=O)[C@H](C)NC(=O)[C@H](C)NC(=O)[C@H](CCC(=O)O)NC(=O)[C@H](CC(=O)O)NC1=O)NC(=O)[C@H](C)NC(=O)[C@H](CC(=O)O)NC2=O (stereo partly drawn) [I-392, Ac-PL3-Asp-Ala-B5-Asp-Glu-Ala-Ala-CypA-Val-S8-Phe-BztA-Gln-NH2] | 5000 |  |  |  | 10 (≈ 18 µg/mL) |  | logD (CHI Log D procedure; pH 7.4, CHI Log D): 2.52
CC(=O)N1CCC[C@]12CC=CCCCC1(CCCC=CCCCCCC[C@@](C)(C(=O)N[C@@H](CCc3ccccc3)C(=O)N[C@@H](Cc3csc4ccccc34)C(=O)N[C@@H](CCC(N)=O)C(N)=O)NC(=O)[C@H](CC(N)=O)NC(=O)[C@H](Cc3ccccc3)NC(=O)[C@H](C)NC(=O)[C@H](C)NC(=O)[C@H](CCC(=O)O)NC(=O)[C@H](CC(=O)O)NC1=O)NC(=O)[C@H](C)NC(=O)[C@H](CC(=O)O)NC2=O (stereo partly drawn) [I-442, Ac-PL3-Asp-Ala-B5-Asp-Glu-Ala-Ala-Phe-Asn-S8-hPhe-BztA-Gln-NH2] | 4480 |  |  | 2.098 | 40 (≈ 73.6 µg/mL) | 4480 | 
CC(=O)N1CCC[C@]12CC=CCCCC1(CCCC=CCCCOC(=O)N3CC[C@@](C(=O)N[C@@H](Cc4ccccc4F)C(=O)N[C@@H](Cc4csc5ccccc45)C(=O)N[C@@H](CO)C(N)=O)(C3)NC(=O)[C@H]([C@@H](C)O)NC(=O)[C@H](Cc3ccccc3)NC(=O)[C@H](C)NC(=O)[C@H](C)NC(=O)[C@H](CC(N)=O)NC(=O)[C@H](CC(=O)O)NC1=O)NC(=O)[C@H](CC(C)(C)C)NC(=O)[C@H](CC(=O)O)NC2=O (stereo partly drawn) [I-1024, Ac-PL3-Asp-Npg-B5-Asp-Asn-Ala-Ala-Phe-Thr-PyrS2-2FF-BztA-Ser-NH2] |  | 2.45 | 43 |  |  |  | Solubility (Solubility in PBS; Solubility (uM)): 14 µM (≈ 26.3 µg/mL)
CC(=O)N1CCC[C@]12CC=CCCCC1(CCCC=CCCCOC(=O)N3CC[C@@](C(=O)N[C@@H](Cc4ccccc4Cl)C(=O)N[C@@H](Cc4csc5ccccc45)C(=O)N[C@@H](CCC(N)=O)C(N)=O)(C3)NC(=O)[C@H](CC(C)C)NC(=O)[C@H](Cc3ccccc3)NC(=O)[C@H](C)NC(=O)[C@H](C)NC(=O)[C@H](CCC(=O)O)NC(=O)[C@H](CC(=O)O)NC1=O)NC(=O)[C@H](CC(C)(C)C)NC(=O)[C@H](CC(=O)O)NC2=O (stereo partly drawn) [I-1063, Ac-PL3-Asp-Npg-B5-Asp-Glu-Ala-Ala-Phe-Leu-PyrS2-2C1F-BztA-Gln-NH2] |  | 1.64 | 471 |  |  |  | Solubility (Solubility in PBS; Solubility (uM)): 43 µM (≈ 84.3 µg/mL)
CC[C@@H]1NC(=O)[C@H](CC(=O)O)NC(=O)[C@]2(CC=CCCCC3(CCCC=CCCCCCC[C@@](C)(C(=O)N[C@@H](Cc4ccccc4)C(=O)N[C@@H](Cc4csc5ccccc45)C(=O)N[C@@H](CCC(N)=O)C(N)=O)NC(=O)[C@H](CC(N)=O)NC(=O)[C@H](Cc4ccccc4)NC(=O)[C@H](C)NC(=O)[C@H](C)NC(=O)[C@H](CCC(=O)O)NC(=O)[C@H](CC(=O)O)NC3=O)NC1=O)CCCN2C(C)=O (stereo partly drawn) [I-473, Ac-PL3-Asp-Abu-B5-Asp-Glu-Ala-Ala-Phe-Asn-S8-Phe-BztA-Gln-NH2] | 121 |  |  | 2.076 | 39 (≈ 71.8 µg/mL) | 121 | 
CC(=O)N1CCC[C@]12CC=CCCCC1(CCCC=CCCCCCC[C@@](C)(C(=O)N[C@@H](Cc3ccccc3)C(=O)N[C@@H](Cc3c[nH]c4ccccc34)C(=O)N[C@@H](CCC(N)=O)C(N)=O)NC(=O)[C@H](C(C)C)NC(=O)[C@H](Cc3ccco3)NC(=O)[C@H](C)NC(=O)[C@H](C)NC(=O)[C@H](CC(=O)O)NC(=O)[C@H](CC(=O)O)NC1=O)NC(=O)[C@H](C)NC(=O)[C@H](CC(=O)O)NC2=O (stereo partly drawn) [I-327, Ac-PL3-Asp-Ala-B5-Asp-Asp-Ala-Ala-2FurA-Val-S8-Phe-Trp-Gln-NH2] |  |  |  | 1.958 | 43 (≈ 76.2 µg/mL) |  | IC50 ([1]; Table E2-1, read-out: beta-Catenin FP IC50): 4720 nM; IC50 [1, 3]: 4720 nM
CC(=O)N1CCC[C@]12CC=CCCCC1(CCCC=CCCCCCC[C@@](C)(C(=O)N[C@@H](Cc3ccccc3)C(=O)N[C@@H](Cc3csc4ccccc34)C(=O)N[C@@H](Cc3c[nH]cn3)C(N)=O)NC(=O)[C@H](CC(N)=O)NC(=O)[C@H](Cc3ccccc3)NC(=O)[C@H](C)NC(=O)[C@H](C)NC(=O)[C@H](CCC(=O)O)NC(=O)[C@H](CC(=O)O)NC1=O)NC(=O)[C@H](C)NC(=O)[C@H](CC(=O)O)NC2=O (stereo partly drawn) [I-421, Ac-PL3-Asp-Ala-B5-Asp-Glu-Ala-Ala-Phe-Asn-S8-Phe-BztA-His-NH2] | 99 |  |  | 2.087 | 36 (≈ 66.1 µg/mL) | 99 | 
CO[C@H](C)[C@@H]1NC(=O)[C@H](CC(=O)O)NC(=O)[C@]2(CC=CCCCC3(CCCC=CCCCCCC[C@@](C)(C(=O)N[C@@H](Cc4ccccc4)C(=O)N[C@@H](Cc4csc5ccccc45)C(=O)N[C@@H](CCC(N)=O)C(N)=O)NC(=O)[C@H](CCC(N)=O)NC(=O)[C@H](Cc4ccccc4)NC(=O)[C@H](C)NC(=O)[C@H](C)NC(=O)[C@H](CCC(=O)O)NC(=O)[C@H](CC(=O)O)NC3=O)NC1=O)CCCN2C(C)=O (stereo partly drawn) [I-541, Ac-PL3-Asp-TOMe-B5-Asp-Glu-Ala-Ala-Phe-Gln-S8-Phe-BztA-Gln-NH2] | 180 |  |  | 2.087 | 50 (≈ 94.3 µg/mL) | 180 | 
CC(=O)N1CCC[C@]12CC=CCCCC1(CCCC=CCCCCOC(=O)N3CC[C@@](C(=O)N[C@@H](Cc4ccsc4)C(=O)N[C@@H](Cc4csc5ccccc45)C(=O)N[C@@H](Cc4c[nH]cn4)C(=O)N[C@@H](C)C(N)=O)(C3)NC(=O)[C@H](CC(N)=O)NC(=O)[C@H](Cc3ccccc3)NC(=O)[C@H](C)NC(=O)[C@H](C)NC(=O)[C@H](CC(=O)O)NC(=O)[C@H](CC(=O)O)NC1=O)NC(=O)[C@H](CC(C)(C)C)NC(=O)[C@H](CC(=O)O)NC2=O (stereo partly drawn) [I-828, Ac-PL3-Asp-Npg-B5-Asp-Asp-Ala-Ala-Phe-Asn-PyrS3-3Thi-BztA-His-Ala-NH2] |  |  | 13 | 2.137 | 40 (≈ 80.5 µg/mL) |  | IC50 [1, 3]: 13 nM
